Assays:
patients with CLL = assay: Compound 1 besylate monotherapy in CLL patients; type: in vivo, human
Environmental stability = type: physicochemical
[1] = monotherapy, as of Sep. 11, 2012

| Structure (SMILES) | maximum tolerated dose (MTD) (patients with CLL; single agent, up to 750 mg PO QD) | patients with CLL with stable disease continuing on treatment (patients with CLL; [1]) | patients with early increases in absolute lymphocyte counts (ALC) (patients with CLL; [1]) | patients with reductions in lymph node size (patients with CLL; [1]) | environmental instabilities (heat, acid, base) (Environmental stability) |
| --- | --- | --- | --- | --- | --- |
| C=CC(=O)Nc1cccc(Nc2nc(Nc3ccc(OCCOC)cc3)ncc2F)c1 [Compound 1, N-(3-(5-fluoro-2-(4-(2-methoxyethoxy)phenylamino)pyrimidin-4-ylamino)phenyl)acrylamide] | has not yet been reached |  |  |  |  |
| C=CC(=O)Nc1cccc(Nc2nc(Nc3ccc(OCCOC)cc3)ncc2F)c1.O=S(=O)(O)c1ccccc1 [N-(3-(5-fluoro-2-(4-(2-methoxyethoxy)phenylamino)pyrimidin-4-ylamino)phenyl)acrylamide benzenesulfonic acid salt] |  | 35 out of 43 | 28 of 33 | 15 of 23 | no environmental instabilities |

Source: patent publication US9492471B2, “Methods of treating a disease or disorder associated with Bruton'S Tyrosine Kinase” (Celgene Avilomics Research, Inc., priority 2013, dated 2016)
